Measurements: patent US20200230205A1, “COMPOSITIONS AND METHODS FOR TREATING MYELIN DISORDERS” (CASE WESTERN RESERVE UNIVERSITY, priority 2017, published 2020)

Legend:
aggrecan (CS56) = experiment: CSPG degradation by OPC conditioned media (CS56 spot quantification and western blot of aggrecan); assay type: cell-based, mouse; details: for aggrecan GAG digestion (CS56 immunoblot): Exo1 10 μg/mL, GM6001 25 μM or OA-Hy 100 nM with 2.5 μM ISP
Method: (§1) CSPG gradients were prepared as described previously (Tom, V. J., et al. Studies on the Development and Behavior of the Dystrophic Growth Cone, the Hallmark of Regeneration Failure, in an In vitro Model of the Glial Scar and after Spinal Cord Injury.). 24-well glass coverslip were coated with poly-L-lysine and nitrocellulose, and a mixture of 700 μg/mL aggrecan (A1960 Sigma) and 10 μg/mL laminin (11243217001 Sigma) spotted on the coated coverslip. After drying, coated coverslips were then incubated with laminin at 37° C. for 3h. Purified OPCs were plated at a density of 10,000/coverslip and cultured in DMEM/F12 medium containing with N2, PDGF (20 ng/ml), FGF (20 ng/ml), NT-3 (5 ng/ml), CNTF (O1 ng/ml), Glutamine (200 mM). Coverslips were stained with CS-56 (C8035, Sigma, 1:500) and O4 antibodies (Hybridoma Core Cleveland Clinic, 1:10). O4-positive cells crossing the aggrecan border were counted for each spot. For CSPG gradient quantification, 1×10^6 OPCs were plated per well on PLL, 1 μg/mL laminin, and 2 μg/mL aggrecan coated 6-well plates. OPCs treated with vehicle, 2.5 μM ISP, or 2.5 μM SISP for 2 days at 37° C. CM was harvested and incubated with freshly made spots. Spots were incubated with CM for 2 days at 37° C. then stained with CS-56 and laminin (L9393, Sigma, 1:1000) antibodies and consistently imaged. Using ImageJ software (NIH), pixel intensities of the CS-56 or laminin spot rims were quantified using the same ROI. For cultured spinal cord explant, the spinal cords of cervical and thoracic of P1 mouse pups were chopped into 1-2 mm tissue pieces and transferred to the coverslip. Explants were cultured in DMEM/F12 medium with 15% FBS (Hyclone), O1 ng/ml PDGF (Sigma) and N2 supplement (Invitrogen). For ISP treatment, 2.5 uM ISP was added to the media at the time of plating. 25 μM GM6001 (2983, Tocris), 100 nM MMP-2 inhibitor (444244, Calbiochem), and/or 2.5 μM ISP or SISP was used.
CM was harvested from 1×10^6 OPCs incubated on PLL, 1 μg/mL laminin, and 2 μg/mL aggrecan coated 6-well plates. OPCs were treated with vehicle, 2.5 μM ISP, or 2.5 μM SISP in conjunction with 10 μg/mL Exo1 (ab120292, Abcam), or 25 μM GM6001 (364205, Calbiochem) for 2 days at 37° C. […] CM of each cell-strained group was incubated with 20 μg/mL aggrecan and/or 10 μg/mL laminin for 2 hours in lmL Eppendorf tubes at 37° C. As a positive control, OPC media was incubated with aggrecan and incubated in the same fashion. Western blots were then performed as described below with incubation against CS-56 and/or laminin antibodies.

[1] = test system: organotypic cerebellar slice cultures; experiment: LPC-induced demyelination in mouse cerebellar slice cultures; assay type: cell-based; details: 25 μM GM6001 or 100 nM OA-Hy in conjunction with 2.5 μM ISP, 9 days
Description: We carried out the cerebellar slice culture method as described previously (Zhang, H., et al. Central nervous system remyelination in culture—A tool for multiple sclerosis research. Experimental Neurology 230, 138-148 (2011)). Briefly, 300 μm-thick cerebellar slices were cut from P10-12 mouse cerebellum using a Leica vibrating microtome (Leica, VT1000S) and cultured in medium containing 50% basal medium eagle medium, 25% Heat-inactivated horse serum, 25% Hank's solution, 2.5% glucose, 1% glutamine and penicillin-streptomycin. After 4 days in vitro (DIV), 0.5 mg/ml LPC were added for 17-18h to induce demyelination. Slices were then incubated with 2.5 μM ISP for 8 days. For GM6001 experiments, 25 μM GM6001 (Tocris) and/or 2.5 μM ISP or SISP was incubated for 9 days. Remyelination was examined by semi-quantitative Western blot of MBP and immunofluorescence stain of MBP and NeuF200.
Slices were fixed with 4% PFA, delipidated, and washed three times in PBS, blocked in PBS containing 0.1% Triton X-100 and 5% normal goat serum and incubated with anti-MBP (SMI-99P, Covance, 1:300), and anti-NeuF200 (N4142, Sigma, 1:250) antibodies overnight at 4° C. The slices were then washed in PBS and incubated in Alexa Fluor-conjugated secondary antibodies (1:500, invitrogen) for 2h. Slices were mounted in Vectashield mounting medium with DAPI (Vector Laboratories) and analyzed using Leica DFC500 fluorescence microscope.

[2] = test system: oligodendrocyte progenitor cells (OPCs); experiment: CSPG gradient crossing (spot) assay, OPC migration; assay type: cell-based, mouse; details: 25 μM GM6001 or 100 nM OA-Hy, even in the presence of ISP
Method: as §1

[3] = test system: oligodendrocyte progenitor cells (OPCs); experiment: Ki-67 proliferation and TUNEL apoptosis of OPCs on aggrecan/laminin; assay type: cell-based, mouse; details: 2.5 μM peptide, 2 div, laminin 1 and aggrecan 2 μg/mL, vs control
Method: To assess proliferation, OPCs were plated on 24-well coverslips that were precoated with PLL, 1 μg/mL laminin, and 2 μg/mL aggrecan. OPCs were treated with vehicle, 2.5 μM ISP or SISP immediately upon plating for 2 days at 37° C. Coverslips were fixed and stained using the same method described in the immunocytochemistry section with Ki-67 (550609, BD Pharmingen, 1:500) and O4 (1:10). Coverslips were imaged and counted. To assess apoptosis, OPCs were cultured in the same fashion and incubated with vehicle or 1 μg/mL LPC for 2 hours at 2 days following vehicle, 2.5 μM ISP or SISP incubation. Coverslips were then fixed with PFA and methanol then stained using APO-BrdU TUNEL assay kit (A23210, ThermoFisher) and guidelines with an O/N incubation of the primary antibody at RT. Coverslips were additionally costained with DAPI (D9542, Sigma, 1:10,000) then imaged and counted.

MMP-10 = MMP-10 western blot of OPC conditioned media; assay type: cell-based, mouse; details: OPC CM, 2.5 μM peptide, same as vehicle
Method: To assess MMP-2 or 10 in OPC CM or lysates, OPCs were incubated on precoated PLL, aggrecan, and laminin as described above. OPCs were treated with vehicle, 2.5 μM ISP or SISP for 2 days at 37° C. CM was then harvested and concentrated using Milipore Ultracel YM-C centrifugal filter units at max speed (Eppendorf Centrifuge […]) for 30 minutes at 4° C. […] of concentrated CM was loaded into each lane. OPC lysates were assessed using western blot techniques described below with […] protein loaded from each group. Tissue samples or cerebellar slices or purified OPC cells were homogenized with RIPA lysis buffer and protein concentration was determined by Pierce BCA protein assay kit according to the manufacture instruction (Thermo Fisher). Then, equal amounts of protein were loaded to 15% SDS-PAGE gels, and electrophoretically transferred to PVDF membranes (Millipore). The membranes were blocked in 0.1% TPBS buffer with 5% non-fat milk for 1h at room temperature and probed with indicated primary antibodies overnight at 4° C. and followed by secondary antibody conjugated to horseradish peroxidase (HRP). […] Enhanced chemiluminescence was performed with a West Pico Kit (Thermo Fisher) and detected by FluorChem E system (ProteinSimple, USA). The density of bands was quantified using ImageJ software (NIH).

Molecule	aggrecan GAG digestion (CS56 immunoblot) (aggrecan (CS56))	colocalization of MBP and neurofilament+ axons [1]	OPC entry into the CSPG-rich area [2]	CS56 spot degradation (aggrecan (CS56); 25 μM GM6001 or 100 nM OA-Hy with 2.5 μM ISP)	OPC proliferation (Ki67) [3]	MMP-10 secretion, western blot (MMP-10)
COC(=O)c1ccccc1NC(=O)c1ccc(F)cc1 [Exo1]	partially rescued aggrecan GAG digestion					
CNC(=O)[C@H](Cc1c[nH]c2ccccc12)NC(=O)[C@@H](CC(=O)NO)CC(C)C [GM6001]	partially rescued	decreased	effectively halted OPC entry	additionally rescued CS56 spot degradation		
GRKKRRQRRRCIREDDSLMLYALAQEKKESNMHES [SISP, scrambled ISP control peptide, reference compound]					not significantly changed	equally low amounts
